The values below are quoted from earlier work in US8628797B2, “Oral extended-release composition” (Andrx Pharmaceuticals, LLC, priority 2003, dated 2014).

The conditions of the first data set: in vivo.
In the case of `COc1c2occc2cc2ccc(=O)oc12` [8-methoxsalen], the “absorption in the presence of food” value is recorded as “increased”.

The data set is the same for the next values; noted with them: in words; literature review.
For the compound `C=CCOc1ccc(CC(=O)O)cc1Cl` [alclofenac], the “absorption in the presence of food” value is on record as “delayed”.

For `CC(=O)Oc1ccccc1C(=O)O` [aspirin], the “absorption in the presence of food” value was “delayed”.

As to `NS(=O)(=O)c1cc2c(cc1C(F)(F)F)NC(Cc1ccccc1)NS2(=O)=O` (stereo not shown) [bendroflumethiazide], the “absorption in the presence of food” value is listed as “unaffected”.

Turning to `N[C@@H](C(=O)N[C@@H]1C(=O)N2C(C(=O)O)=C(Cl)CS[C@H]12)c1ccccc1` [cefaclor], the “absorption in the presence of food” value is on record as “delayed”.

For `CN/C(=N/CCSCc1nc[nH]c1C)NC#N` [cimetidine], the “absorption in the presence of food” value was “delayed”.

Take `O=c1oc2ccccc2c(O)c1Cc1c(O)c2ccccc2oc1=O` [dicoumarol]: the “absorption in the presence of food” value is “increased”.

Regarding `CCC(=O)O[C@H]1[C@H](O[C@@H]2[C@@H](C)[C@H](O[C@H]3C[C@@](C)(OC)[C@@H](O)[C@H](C)O3)[C@@H](C)C(=O)O[C@H](CC)[C@@](C)(O)[C@H](O)[C@@H](C)C(=O)[C@H](C)C[C@@]2(C)O)O[C@H](C)C[C@@H]1N(C)C` [erythromycin estolate], the “absorption in the presence of food” value is “unaffected”.

Consider `CC(C(=O)O)c1ccc(N2Cc3ccccc3C2=O)cc1` (stereo not shown) [indoprofen], for which the “absorption in the presence of food” value is listed as “delayed”.

Consider `O=C1CN(/N=C/c2ccc([N+](=O)[O-])o2)C(=O)N1` [nitrofurantoin], for which the “absorption in the presence of food” value is “increased”.

On to spiramycin, for which the “absorption in the presence of food” value is “unaffected”.

For a further data set the following is noted: 1 part drug in the stated parts of water.
With `CC[C@H]1OC(=O)[C@H](C)[C@@H](O[C@H]2C[C@@](C)(OC)[C@@H](O)[C@H](C)O2)[C@H](C)[C@@H](O[C@@H]2O[C@H](C)C[C@H](N(C)C)[C@H]2O)[C@](C)(OC)C[C@@H](C)C(=O)[C@H](C)[C@@H](O)[C@]1(C)O` [Clarithromycin, 6-O-methylerythromycin A], the solubility is ~1,000 parts of water.

As for `CC1Cc2ccccc2N1NC(=O)c1ccc(Cl)c(S(N)(=O)=O)c1` (stereo not shown) [indapamide], the solubility result is given as “more than 10,000 parts of water”.
